Assay results: patent US12187705B2, “Heteroaryl-triazole and heteroaryl-tetrazole compounds as pesticides” (Bayer Aktiengesellschaft, priority 2018, dated 2025)

Assays:
Assay type in all cases: in vivo
Myzus persicae = Myzus persicae oral test; details: 120 h
Procedure: To produce a suitable preparation of active compound, 1 part by weight of active compound is mixed with the stated amount of solvent, and the concentrate is diluted with water to the desired concentration.
50 μl compound solution is filled in microtiter plates and 150 μl IPL41 insect medium (33%+15% sugar) is added to obtain a total volume of 200 μl per well. Afterwards the plates are sealed with parafilm through which a mixed population of the green peach aphid (Myzus persicae) can suck on the compound preparation.
After 5 days mortality in % is determined. 100% means all aphids have been killed and 0% means none of the aphids have been killed.

Diabrotica balteata = Diabrotica balteata spray test; details: 160 μg/well, wheat seeds, after 7 days; for pest or weed control at 160 µg/disc, 160 µg/well: Diabrotica balteata, 168 h, read-out: efficacy (seedlings grown)
Procedure: Diabrotica balteata—Spray Test
(§1) To produce a suitable preparation of active compound, 1 part by weight of active compound is mixed with the stated amount of solvent, and the concentrate is diluted with water, containing an emulsifier concentration of 1000 ppm, to the desired concentration. Further test concentrations are prepared by dilution with emulsifier containing water.
Soaked wheat seeds (Triticum aestivum) are placed in a multiple well plate filled with agar and some water and are incubated for 1 day to germinate (5 seeds per well). The germinated wheat seeds are sprayed with a test solution containing the desired concentration of the active ingredient. Afterwards each unit is infected with 10-20 larvae of the banded cucumber beetle (Diabrotica balteata).
After 7 days efficacy in % is determined. 100% means all the seedlings have grown up like in the untreated, uninfected control; 0% means none of the seedlings have grown.

Nezara viridula = Nezara viridula spray test; details: in Hordeum vulgare, 96 h
Procedure: Nezara viridula—Spray Test
as §1
Barley plants (Hordeum vulgare) infested with larvae of the southern green stink bug (Nezara viridula) are sprayed with a test solution containing the desired concentration of the active ingredient.
After 4 days mortality in % is determined. 100% means all the stink bugs have been killed; 0% means none of the stink bugs have been killed.

Ctenocephalides felis [1] = test: Ctenocephalides felis oral test; details: Ctenocephalides felis, in Bos taurus, po, 48 h
Procedure: Ctenocephalides felis—Oral Test
Solvent: dimethyl sulfoxide
To produce a suitable preparation of active compound, 10 mg of active compound are dissolved in 0.5 ml solvent, and the concentrate is diluted with cattle blood to the desired concentration.
Approximately 20 adult unfed cat fleas (Ctenocephalides felis) are placed in flea chambers. The blood chamber, sealed with parafilm on the bottom, are filled with cattle blood supplied with compound solution and placed on the gauze covered top of the flea chamber, so that the fleas are able to suck the blood. The blood chamber is heated to 37° C. whereas the flea chamber is kept at room temperature.
After 2 days mortality in % is determined. 100% means all the fleas have been killed; 0% means none of the fleas have been killed.

Ctenocephalides felis [2] = test: Ctenocephalides felis in-vitro contact test adult cat flea; details: 5 μg/cm^2 (=500 g/ha), after 48 hours
Procedure: Ctenocephalides felis—In-Vitro Contact Test Adult Cat Flea
9 mg compound is solved in 1 ml acetone and diluted with acetone to the desired concentration. 250 μl of the test solution is filled in 25 ml glass test tubes and homogeneously distributed on the inner walls by rotation and tilting on a shaking device (2 h at 30 rpm). With a compound concentration of 900 ppm, an inner surface of 44.7 cm^2 and a homogeneous distribution, a dose of 5 μg/cm^2 is achieved.
After the solvent has evaporated, each test tube is filled with 5-10 adult cat fleas (Ctenocephalides felis), closed with a perforated lid and incubated in a lying position at room temperature and relative humidity. After 48 hours efficacy is determined. The fleas are patted on the ground of the tubes and are incubated on a heating plate at 45-50° C. for at most 5 minutes. Immotile or uncoordinated moving fleas, which are not able to escape the heat by climbing upwards, are marked as dead or moribund.
An efficacy of 100% means all fleas are dead or moribund; 0% means no fleas are dead or moribund.

[3] = system: Culex quinquefasciatus strain P00; test: Culex quinquefasciatus test (CULXFA surface treatment & contact assay); details: surface concentration 20 mg/m^2, 30 minutes exposure, 24 hours after contact, read-out: efficacy (mortality)
Procedure: Culex quinquefasciatus Test (CULXFA Surface Treatment & Contact Assay)
Solvent: Aceton+2000 ppm rapeseed oil methyl ester (RME)
In order to produce a sufficient, active ingredient containing solution it is necessary to solve the test-compound in the solvent-mix (Acetone at 2 mg/ml/RME 2000 ppm). This solution is pipetted onto a glazed tile and after evaporation of the Acetone, adult mosquitoes of the species Culex quinquefasciatus strain P00 are placed onto the dried surface. The exposure time is 30 minutes.
Mortality in percent (%) is determined 24 hours after contact to the treated surface. 100% mortality means that all test-insects are dead, whereas 0% means that not a single insect died.

| SMILES | pest or weed control at 160 µg/disc, 160 µg/well (Diabrotica balteata) [%] | efficacy (seedlings grown) (Diabrotica balteata) [%] | also measured |
| --- | --- | --- | --- |
| CC(c1ncnn1-c1ncccn1)N(CC1CC1)C(=O)c1cc(Cl)cc(C(=O)NC2CC2)c1 (stereo not shown) [Example I-007] | 100 | – | mortality at 4 ppm (Myzus persicae): 100%; mortality at 20 ppm (Myzus persicae): 100%; mortality at 500 g/ha (Nezara viridula): 100%; mortality at 100 ppm (Ctenocephalides felis [1]): 100%; pest or weed control at 5 µg/cm2, 5 µg/cm2 (Ctenocephalides felis [2]; Ctenocephalides felis, read-out: efficacy (fleas dead or moribund)): 100% |
| CC(c1ncnn1-c1ncccn1)N(CC1CC1)C(=O)Cc1cc(Cl)cc(C(F)(F)F)c1 (stereo not shown) [Example I-011] | 100 | – | – |
| CC(c1ncnn1-c1ncccn1)N(CC1CC1)C(=O)c1cc(Cl)ccc1Cl (stereo not shown) [Example I-014] | 100 | – | – |
| CC(NC(=O)c1cc(Cl)cc(C2CC2)c1)c1ncnn1-c1ccc(C#N)cn1 (stereo not shown) [Example I-054] | – | 100 | efficacy (fleas dead or moribund) (Ctenocephalides felis [2]): 80% |
| COC[C@H](NC(=O)c1cc(Cl)cc(S(C)(=O)=O)c1)c1ncnn1-c1ccc(C#N)cn1 [Example I-058, 3-chloro-N-{(1R)-1-[1-(5-cyanopyridin-2-yl)-1H-1,2,4-triazol-5-yl]-2-methoxyethyl}-5-(methylsulfonyl)benzamide] | – | – | mortality at 100 ppm (Ctenocephalides felis [1]): 100% |
| C[C@@H](NC(=O)c1cc(Cl)cc(SC(C)(C)C)c1)c1ncnn1-c1ncccn1 [Example I-060] | 100 | – | mortality at 500 g/ha (Nezara viridula): 100%; mortality at 100 ppm (Ctenocephalides felis [1]): 100% |
| CC(NC(=O)c1cc(Cl)cc(S(=O)(=O)C(F)(F)F)c1)c1ncnn1-c1ncc(Cl)cc1F (stereo not shown) [Example I-079] | – | 100 | – |
| C[C@H](NC(=O)c1cc(Cl)cc(NS(=O)(=O)c2ccccc2)c1)c1ncnn1-c1ncccn1 [Example I-086, 3-chloro-5-[(phenylsulfonyl)amino]-N-{(1S)-1-[1-(pyrimidin-2-yl)-1H-1,2,4-triazol-5-yl]ethyl}benzamide] | – | – | mortality at 4 ppm (Myzus persicae): 90% |
| C[C@@H](NC(=O)c1cc(Cl)cc(NC(=O)C2CC2)c1)c1ncnn1-c1ncccn1 [Example I-088] | – | – | mortality at 100 ppm (Ctenocephalides felis [1]): 100% |
| CC(NC(=O)c1cc(Cl)cc(S(C)(=O)=O)c1)c1nc(C(F)(F)F)nn1-c1ccc(Cl)cn1 (stereo not shown) [Example I-090] | – | 100 | – |
| CC(NC(=O)c1cc(Cl)cc(S(=O)(=O)C(F)(F)F)c1)c1ncnn1-c1ncc(C(F)(F)F)cn1 (stereo not shown) [Example I-097] | – | 100 | – |
| CC(NC(=O)c1csc(Cl)c1)c1ncnn1-c1ncc(C(F)(F)F)cn1 (stereo not shown) [Example I-098] | – | 100 | efficacy (fleas dead or moribund) (Ctenocephalides felis [2]): 90% |
| CC(NC(=O)c1cc(C(F)(F)F)cc(Cl)c1F)c1ncnn1-c1ncccn1 (stereo not shown) [Example I-104] | – | 100 | – |
| C[C@@H](NC(=O)c1cc(C2CC2)on1)c1ncnn1-c1ncccn1 [Example I-107] | 100 | – | mortality at 500 g/ha (Nezara viridula): 100%; mortality at 20 mg/m2 [3]: 80 to 100% |
| Cc1cnc(-n2ncnc2[C@@H](C)NC(=O)c2csc(Cl)c2)nc1 [Example I-109] | – | – | mortality at 500 g/ha (Nezara viridula): 90% |
| CC(NC(=O)c1cccc(-c2ccc(OC(F)(F)F)cc2)c1)c1ncnn1-c1ncccn1 (stereo not shown) [Example I-115] | 100 | – | – |
| C[C@H](NC(=O)c1cc(Cl)cc(S(C)(=O)=O)c1)c1ncnn1-c1cnc(C#N)cn1 [Example I-117] | – | 100 | – |
| C[C@H](NC(=O)c1cc(Cl)cc(S(=O)(=O)C(F)(F)F)c1)c1ncnn1-c1ccc(F)cn1 [Example I-118] | – | 100 | – |
| C[C@@H](c1ncnn1-c1ccc(C#N)cn1)N(CC1CC1)C(=O)c1cc(F)cc(C2CC2)c1 [Example I-121] | – | 100 | – |
| C[C@H](NC(=O)c1cc(Br)cc(C(C)(C)C)c1)c1ncnn1-c1ncccn1 [Example I-125] | – | 100 | – |
